{"source": "patent US12162872B2", "about": "“Cycloalkylurea derivative” (Sumitomo Pharma Co., Ltd., priority 2019, dated 2024)", "data": [{"molecular_target": "T1, Human orexin receptor type 2 (Homo sapiens, UniProt O43614)", "T1 construct": "expressed in transfected cells; host or cells: CHO cells (transient expression)", "T1 sequence (O43614 1-444)": "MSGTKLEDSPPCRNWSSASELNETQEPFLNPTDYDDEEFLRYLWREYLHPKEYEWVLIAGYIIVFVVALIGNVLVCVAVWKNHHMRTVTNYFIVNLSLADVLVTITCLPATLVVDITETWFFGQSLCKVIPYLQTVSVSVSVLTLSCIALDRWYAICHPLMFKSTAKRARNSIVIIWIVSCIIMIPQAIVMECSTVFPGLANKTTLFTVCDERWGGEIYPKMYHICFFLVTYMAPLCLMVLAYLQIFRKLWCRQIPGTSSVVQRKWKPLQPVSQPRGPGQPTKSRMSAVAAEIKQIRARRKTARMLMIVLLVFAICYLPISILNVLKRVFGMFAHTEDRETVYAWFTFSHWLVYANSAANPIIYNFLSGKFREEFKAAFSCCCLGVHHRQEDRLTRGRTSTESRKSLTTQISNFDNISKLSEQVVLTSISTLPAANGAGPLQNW", "assay": "Test 2: Evaluation of agonist activity for orexin receptor type 2 (aequorin luminescence, intracellular calcium mobilization in CHO cells)", "format": "cell-based", "conditions": "relative percentage of luminescence for the luminescence (100%) of Orexin A (100 pM); CHO cells transiently expressing human orexin receptor type 2 and apoaequorin; Orexin A Lot. 671009", "method": "Test 2: Evaluation of Agonist Activity for Orexin Receptor Type 2\nHuman orexin receptor type 2 and apoaequorin were transiently expressed in CHO cells, and the agonist activity was evaluated based on intracellular calcium mobilization with ligand stimulation. The CHO cells transiently-expressed human orexin receptor type 2 and apoaequorin were seeded on a 384-well plate by 2,000 cells/well, and then incubated for 16-22 hours. After the plate was returned to room temperature, Coelenterazine hcp (final concentration: 1 μM) was added to the plate, and the plate was allowed to stand at room temperature for 2 hours. And then, Orexin A (PEPTIDE INSTITUTE, INC., Lot. 671009) or each test compound was added to the plate, and the luminescence of the cells was measured with FDSS7000 (Hamamatsu Photonics K.K.), wherein Orexin A and each test compound were dissolved in DMSO (final concentration: 0.1%), and diluted with a buffer (Hanks, 20 mM HEPES, 0.1% BSA). The agonist activity of each test compound for orexin receptor type 2 was calculated as relative percentage of luminescence for the luminescence (100%) of Orexin A (100 pM).", "units": {"agonist activity (%)": "%"}, "values": [{"smiles": "CC(C)c1nc([C@H]2CCCC(F)(F)[C@@H]2NC(=O)N2CCC(C)(c3noc([C@@H]4C[C@@H]4F)n3)CC2)no1", "note": "[Example 86, N-{(1R,6S)-2,2-difluoro-6-[5-(propan-2-yl)-1,2,4-oxadiazol-3-yl]cyclohexyl}-4-{5-[(1S,2S)-2-fluorocyclopropyl]-1,2,4-oxadiazol-3-yl}-4-methylpiperidine-1-carboxamide]", "agonist activity (%)": 367}, {"smiles": "CC(C)CN1CC[C@H](O[C@H]2CCCC(F)(F)[C@@H]2NC(=O)N2CCC(C)(c3noc([C@@H]4C[C@@H]4F)n3)CC2)C1", "note": "[Example 107, N-[(1R,6S)-2,2-difluoro-6-{[(3S)-1-(2-methylpropyl)pyrrolidin-3-yl]oxy}cyclohexyl]-4-{5-[(1S,2S)-2-fluorocyclopropyl]-1,2,4-oxadiazol-3-yl}-4-methylpiperidine-1-carboxamide]", "agonist activity (%)": 363}, {"smiles": "CN(CC1CC1)[C@@H]1CCCN([C@H]2CCCC(F)(F)[C@@H]2NC(=O)N2CCC(C)(c3noc([C@@H]4C[C@@H]4F)n3)CC2)CC1", "note": "[Example 145, N-[(1R,6S)-6-{(4R)-4-[(cyclopropylmethyl)(methyl)amino]azepan-1-yl}-2,2-difluorocyclohexyl]-4-{5-[(1S,2S)-2-fluorocyclopropyl]-1,2,4-oxadiazol-3-yl}-4-methylpiperidine-1-carboxamide]", "agonist activity (%)": 403}, {"smiles": "CC(C)N1[C@@H]2CC[C@H]1C[C@@H](O[C@H]1CCCC(F)(F)[C@@H]1NC(=O)N1CCC(C)(c3noc([C@@H]4C[C@@H]4F)n3)CC1)C2", "note": "[Example 105, N-[(1R,6S)-2,2-difluoro-6-{[(1R,3R,5S)-8-(propan-2-yl)-8-azabicyclo[3.2.1]octan-3-yl]oxy}cyclohexyl]-4-{5-[(1S,2S)-2-fluorocyclopropyl]-1,2,4-oxadiazol-3-yl}-4-methylpiperidine-1-carboxamide]", "agonist activity (%)": 359}, {"smiles": "CC(C)N1[C@@H]2CC[C@H]1C[C@H](O[C@H]1CCCC(F)(F)[C@@H]1NC(=O)N1CCC(C)(c3noc([C@@H]4C[C@@H]4F)n3)CC1)C2", "note": "[Example 98, N-[(1R,6S)-2,2-difluoro-6-{[(1R,3S,5S)-8-(propan-2-yl)-8-azabicyclo[3.2.1]octan-3-yl]oxy}cyclohexyl]-4-{5-[(1S,2S)-2-fluorocyclopropyl]-1,2,4-oxadiazol-3-yl}-4-methylpiperidine-1-carboxamide]", "agonist activity (%)": 271}, {"smiles": "CC1(CN2CC[C@H](O[C@H]3CCCC(F)(F)[C@@H]3NC(=O)N3CCC(C)(c4noc([C@@H]5C[C@@H]5F)n4)CC3)C2)COC1", "note": "[Example 150, N-[(1R,6S)-2,2-difluoro-6-({(3S)-1-[(3-methyloxetan-3-yl)methyl]pyrrolidin-3-yl}oxy)cyclohexyl]-4-{5-[(1S,2S)-2-fluorocyclopropyl]-1,2,4-oxadiazol-3-yl}-4-methylpiperidine-1-carboxamide]", "agonist activity (%)": 437}, {"smiles": "CC(C)N1C[C@H]2CC[C@@H](C1)[C@H]2O[C@H]1CCCC(F)(F)[C@@H]1NC(=O)N1CCC(C)(c2noc([C@@H]3C[C@@H]3F)n2)CC1", "note": "[Example 100, N-[(1R,6S)-2,2-difluoro-6-{[(1R,5S,8R)-3-(propan-2-yl)-3-azabicyclo[3.2.1]octan-8-yl]oxy}cyclohexyl]-4-{5-[(1S,2S)-2-fluorocyclopropyl]-1,2,4-oxadiazol-3-yl}-4-methylpiperidine-1-carboxamide]", "agonist activity (%)": 340}, {"smiles": "CC(C)N1CC[C@H](N(Cc2ccccc2)[C@H]2CCCC(F)(F)[C@@H]2NC(=O)N2CCC(C)(c3noc([C@@H]4C[C@@H]4F)n3)CC2)C1", "note": "[Example 91, N-[(1R,6S)-6-{benzyl[(3S)-1-(propan-2-yl)pyrrolidin-3-yl]amino}-2,2-difluorocyclohexyl]-4-{5-[(1S,2S)-2-fluorocyclopropyl]-1,2,4-oxadiazol-3-yl}-4-methylpiperidine-1-carboxamide]", "agonist activity (%)": 243}, {"smiles": "CCN(CC)C1CCN([C@H]2CCCC(F)(F)[C@@H]2NC(=O)N2CCC(C)(c3noc([C@@H]4C[C@@H]4F)n3)CC2)CC1", "note": "[Example 129, N-{(1R,6S)-6-[4-(diethylamino)piperidin-1-yl]-2,2-difluorocyclohexyl}-4-{5-[(1S,2S)-2-fluorocyclopropyl]-1,2,4-oxadiazol-3-yl}-4-methylpiperidine-1-carboxamide]", "agonist activity (%)": 435}, {"smiles": "CC(C)N1CC[C@H](N(C)[C@H]2CCCC(F)(F)[C@@H]2NC(=O)N2CCC(C)(c3noc([C@@H]4C[C@@H]4F)n3)CC2)C1", "note": "[Example 95, N-[(1R,6S)-2,2-difluoro-6-{methyl[(3S)-1-(propan-2-yl)pyrrolidin-3-yl]amino}cyclohexyl]-4-{5-[(1S,2S)-2-fluorocyclopropyl]-1,2,4-oxadiazol-3-yl}-4-methylpiperidine-1-carboxamide]", "agonist activity (%)": 447}, {"smiles": "CC(C)CN(C)[C@H]1CCN([C@H]2CCCC(F)(F)[C@@H]2NC(=O)N2CCC(C)(c3noc([C@@H]4C[C@@H]4F)n3)CC2)C1", "note": "[Example 128, N-[(1R,6S)-2,2-difluoro-6-{(3S)-3-[methyl(2-methylpropyl)amino]pyrrolidin-1-yl}cyclohexyl]-4-{5-[(1S,2S)-2-fluorocyclopropyl]-1,2,4-oxadiazol-3-yl}-4-methylpiperidine-1-carboxamide]", "agonist activity (%)": 402}, {"smiles": "CO[C@@H]1CN(C(C)C)C[C@H]1O[C@H]1CCCC(F)(F)[C@@H]1NC(=O)N1CCC(C)(c2noc([C@@H]3C[C@@H]3F)n2)CC1", "note": "[Example 108, N-[(1R,6S)-2,2-difluoro-6-{[(3R,4R)-4-methoxy-1-(propan-2-yl)pyrrolidin-3-yl]oxy}cyclohexyl]-4-{5-[(1S,2S)-2-fluorocyclopropyl]-1,2,4-oxadiazol-3-yl}-4-methylpiperidine-1-carboxamide]", "agonist activity (%)": 292}, {"smiles": "CC(C)N1CCN(C(=O)[C@H]2CCCC(F)(F)[C@@H]2NC(=O)N2CCC(C)(c3noc([C@@H]4C[C@@H]4F)n3)CC2)CC1", "note": "[Example 132, N-{(1R,6S)-2,2-difluoro-6-[4-(propan-2-yl)piperazine-1-carbonyl]cyclohexyl}-4-{5-[(1S,2S)-2-fluorocyclopropyl]-1,2,4-oxadiazol-3-yl}-4-methylpiperidine-1-carboxamide]", "agonist activity (%)": 166}, {"smiles": "CC1(c2noc([C@@H]3C[C@@H]3F)n2)CCN(C(=O)N[C@@H]2[C@@H](O[C@H]3CCN(CC4(F)CC4)C3)CCCC2(F)F)CC1", "note": "[Example 133, N-[(1R,6S)-2,2-difluoro-6-({(3S)-1-[(1-fluorocyclopropyl)methyl]pyrrolidin-3-yl}oxy)cyclohexyl]-4-{5-[(1S,2S)-2-fluorocyclopropyl]-1,2,4-oxadiazol-3-yl}-4-methylpiperidine-1-carboxamide]", "agonist activity (%)": 506}, {"smiles": "CC(C)N1CC2CN([C@H]3CCCC(F)(F)[C@@H]3NC(=O)N3CCC(C)(c4noc([C@@H]5C[C@@H]5F)n4)CC3)CC2C1", "note": "(stereo partly drawn) [Example 125, N-{(1R,6S)-2,2-difluoro-6-[5-(propan-2-yl)hexahydropyrrolo[3,4-c]pyrrol-2(1H)-yl]cyclohexyl}-4-{5-[(1S,2S)-2-fluorocyclopropyl]-1,2,4-oxadiazol-3-yl}-4-methylpiperidine-1-carboxamide]", "agonist activity (%)": 402}, {"smiles": "CC(C)N1CC(O[C@H]2CCCC(F)(F)[C@@H]2NC(=O)N2CCC(C)(c3noc([C@@H]4C[C@@H]4F)n3)CC2)C1", "note": "[Example 89, N-[(1R,6S)-2,2-difluoro-6-{[1-(propan-2-yl)azetidin-3-yl]oxy}cyclohexyl]-4-{5-[(1S,2S)-2-fluorocyclopropyl]-1,2,4-oxadiazol-3-yl}-4-methylpiperidine-1-carboxamide]", "agonist activity (%)": 0}, {"smiles": "CN(CC1(C(F)(F)F)CC1)C1CCN([C@H]2CCCC(F)(F)[C@@H]2NC(=O)N2CCC(C)(c3noc([C@@H]4C[C@@H]4F)n3)CC2)CC1", "note": "[Example 140, N-{(1R,6S)-2,2-difluoro-6-[4-(methyl{[1-(trifluoromethyl)cyclopropyl]methyl}amino)piperidin-1-yl]cyclohexyl}-4-{5-[(1S,2S)-2-fluorocyclopropyl]-1,2,4-oxadiazol-3-yl}-4-methylpiperidine-1-carboxamide]", "agonist activity (%)": 249}, {"smiles": "CC1(c2noc(C3CC3)n2)CCN(C(=O)N[C@@H]2[C@@H](O[C@H]3CCN(CC4CC4)C3)CCCC2(F)F)CC1", "note": "[Example 122, N-[(1R,6S)-6-{[(3S)-1-(cyclopropylmethyl)pyrrolidin-3-yl]oxy}-2,2-difluorocyclohexyl]-4-(5-cyclopropyl-1,2,4-oxadiazol-3-yl)-4-methylpiperidine-1-carboxamide]", "agonist activity (%)": 369}, {"smiles": "CC(C)N1CCN([C@H]2CCC[C@@H](F)[C@@H]2NC(=O)N2CCC(C)(c3noc(C4CC4)n3)CC2)CC1", "note": "(racemic) [Example 139, rac-4-(5-cyclopropyl-1,2,4-oxadiazol-3-yl)-N-{(1R,2R,6S)-2-fluoro-6-[4-(propan-2-yl)piperazin-1-yl]cyclohexyl}-4-methylpiperidine-1-carboxamide]", "agonist activity (%)": 351}]}]}
